Assay results from BindingDB's records for doi:10.1016/j.bmcl.2015.04.045 (Chungbuk National University, 2015).

Molecular target: T1, Pancreatic triacylglycerol lipase (Sus scrofa, UniProt P00591)
T1 sequence (P00591 whole entry): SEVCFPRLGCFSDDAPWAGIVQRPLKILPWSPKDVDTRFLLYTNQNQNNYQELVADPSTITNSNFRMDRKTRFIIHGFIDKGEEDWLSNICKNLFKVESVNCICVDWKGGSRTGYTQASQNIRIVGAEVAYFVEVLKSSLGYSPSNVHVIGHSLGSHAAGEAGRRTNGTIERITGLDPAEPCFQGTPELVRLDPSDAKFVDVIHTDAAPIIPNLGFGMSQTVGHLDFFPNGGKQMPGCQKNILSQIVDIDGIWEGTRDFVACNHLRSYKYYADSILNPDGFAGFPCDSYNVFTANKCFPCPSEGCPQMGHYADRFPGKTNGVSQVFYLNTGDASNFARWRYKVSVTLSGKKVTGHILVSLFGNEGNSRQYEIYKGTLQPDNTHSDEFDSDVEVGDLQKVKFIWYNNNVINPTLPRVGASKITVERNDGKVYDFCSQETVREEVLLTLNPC
Test: Inhibition of porcine pancreatic lipase using p-nitrophenylbutyrate as substrate assessed as formation of p-nitrophenol preincubated for 15 mins followed by substrate addition measured after 15 mins

Row | IC50 [µM] | SMILES
1 | > 70 | O=c1cc(O)cc2oc(-c3ccc(O)c(O)c3)c(O[C@@H]3O[C@H](CO)[C@@H](O)[C@H](O)[C@H]3O)c(O)c1-2 [Quercetin 3-O-beta-D-glucoside]
2 | > 70 | O=c1cc(O)cc2oc(-c3ccc(O)cc3)c(O[C@@H]3O[C@H](CO)[C@@H](O)[C@H](O)[C@H]3O)c(O)c1-2 [3,4',5,7-Tetrahydroxyflavone-3-glucoside]
